“And” between values parts separate entries of the source, which are not always exact repeats. Equal entries are not always repeated.
Legend:
[1] = tested on: patients with uncontrolled gout; experiment: Adverse events of special interest: gout flares during the Methotrexate Run-in Period; format: in vivo, human; conditions: for Number of Gout Flares per Subject among subjects with at least one gout flare, Mean / Number of Gout Flares per Subject among subjects with at least one gout flare, Median / Gout Flares, % of subjects / Subjects with 1 gout flare, % / Subjects with 2 gout flares, %: Methotrexate Run-in Period
Text: As used herein, a “gout flare” refers to a manifestation of physiological or biochemical symptoms of gout, which is a possible side effect or AE associated with treatment with KXX. A gout flare may produce burning itching, tingling, or stiffness in the joints, particularly the peripheral joints. An individual may also experience redness, swelling, and pain in the joints. In accordance with the disclosure, gout flares may initially increase when starting treatment with KXX. For such individuals, medications to help reduce flares may be taken regularly for the first few months after KXX is started. […] In some embodiments, gout flare prophylaxis may include, but is not limited to, In some embodiments, prophylactic treatment may be given prior to an infusion of KXX, for example one week prior to treatment with KXX.
Gout Flare Treatment—An increase in gout flares was frequently observed upon initiation of anti-hyperuricemic therapy, including treatment with pegloticase. Participants were instructed to contact the site within 12 hours of the onset of symptoms. Gout flares were confirmed through questioning or direct observation. All participants who experience a gout flare during the study were prescribed anti-inflammatory treatment (e.g., corticosteroids, NSAIDs, colchicine) as deemed clinically indicated by the study physician.

[2] = Stability of pegloticase diluted in infusion bags; format: physicochemical; conditions: at 2° C. to 8° C. and at room temperature (20° C. to 25° C.); 0.45% or 0.9% Sodium Chloride
Experimental: Preparation—Vials were visually inspected for particulate matter and discoloration before administration, whenever solution and container permit. Vials were not used if either was present. Using appropriate aseptic technique, 1 mL of pegloticase was withdrawn from the vial into a sterile syringe. Any unused portion of product remaining in the vial was discarded. Syringe contents were injected into a single 250 mL bag of 0.45% or 0.9% Sodium Chloride Injection, United States Pharmacopeia (USP) for IV infusion and was not mixed or diluted with other drugs. The infusion bag containing the dilute pegloticase solution was inverted several times, but not shaken, to ensure thorough mixing.
Pegloticase diluted in infusion bags was stable for 4 hours at 2° C. to 8° C. (36° F. to 46° F.) and at room temperature (20° C. to 25° C., 68° F. to 77° F.); however, the diluted solution was stored under refrigeration, not frozen, protected from light, and used within 4 hours of dilution. Before administration, the diluted solution of pegloticase was allowed to reach room temperature. Pegloticase in a vial or IV infusion fluid was never subjected to artificial heating.

serum uric acid (sUA) = conditions: cited from earlier work
[3] = tested on: patients with chronic gout; conditions: cited from earlier work

## CN(Cc1cnc2nc(N)nc(N)c2n1)c1ccc(C(=O)N[C@@H](CCC(=O)O)C(=O)O)cc1 [MTX, methotrexate]
[1]; Day 1, ITT
  Maximum Reported Intensity of Flare (0-10 scale), Max: 8
  Maximum Reported Intensity of Flare (0-10 scale), Mean: 5.8
  Maximum Reported Intensity of Flare (0-10 scale), Median: 5.5
  Maximum Reported Intensity of Flare (0-10 scale), Min: 4
[1]; Day 1, ITT, 14 assessed
  Any Gout Flares Since the Last Visit, %: (57.1) %
  Pain at rest >3 out of 10, %: (57.1) %
  Pain different than normal, %: (50.0) %
  Swelling in Joints, %: (42.9) %
[1]; Day 1, mITT
  Maximum Reported Intensity of Flare (0-10 scale), Max: 8
  Maximum Reported Intensity of Flare (0-10 scale), Mean: 5.8
  Maximum Reported Intensity of Flare (0-10 scale), Median: 5.5
  Maximum Reported Intensity of Flare (0-10 scale), Min: 4
[1]; Day 1, mITT, 14 assessed
  Any Gout Flares Since the Last Visit, %: (57.1) %
  Pain at rest >3 out of 10, %: (57.1) %
  Pain different than normal, %: (50.0) %
  Swelling in Joints, %: (42.9) %
[1]; ITT
  Number of Gout Flares per Subject among subjects with at least one gout flare, Mean: 1.2
  Number of Gout Flares per Subject among subjects with at least one gout flare, Median: 1.0
[1]; ITT N = 15
  Gout Flares, % of subjects: (33.3) %
  Subjects with 1 gout flare, %: (26.7) %
  Subjects with 2 gout flares, %: (6.7) %
[1]; mITT
  Number of Gout Flares per Subject among subjects with at least one gout flare, Mean: 1.2
  Number of Gout Flares per Subject among subjects with at least one gout flare, Median: 1.0
[1]; mITT N = 14
  Gout Flares, % of subjects: (35.7) %
  Subjects with 1 gout flare, %: (28.6) %
  Subjects with 2 gout flares, %: (7.1) %
[1]; Week −4, ITT
  Maximum Reported Intensity of Flare (0-10 scale), Max: 10
  Maximum Reported Intensity of Flare (0-10 scale), Mean: 8.5
  Maximum Reported Intensity of Flare (0-10 scale), Median: 8.0
  Maximum Reported Intensity of Flare (0-10 scale), Min: 7
[1]; Week −4, ITT, 14 assessed
  Any Gout Flares Since the Last Visit, %: (57.1) %
  Pain at rest >3 out of 10, %: (50.0) %
  Pain different than normal, %: (42.9) %
  Swelling in Joints, %: (50.0) %
[1]; Week −4, mITT
  Maximum Reported Intensity of Flare (0-10 scale), Max: 10
  Maximum Reported Intensity of Flare (0-10 scale), Mean: 8.2
  Maximum Reported Intensity of Flare (0-10 scale), Median: 8.0
  Maximum Reported Intensity of Flare (0-10 scale), Min: 7
[1]; Week −4, mITT, 13 assessed
  Any Gout Flares Since the Last Visit, %: (53.8) %
  Pain at rest >3 out of 10, %: (46.2) %
  Pain different than normal, %: (38.5) %
  Swelling in Joints, %: (46.2) %

B1: pegloticase (protein)
chain: TYKKNDEVEFVRTGYGKDMIKVLHIQRDGKYHSIKEVATTVQLTLSSKKDYLHGDNSDVIPTDTIKNTVNVLAKFKGIKSIETFAVTICEHFLSSFKHVIRAQVYVEEVPWKRFEKNGVKHVHAFIYTPTGTHFCEVEQIRNGPPVIHSGIKDLKVLKTTQSGFEGFIKDQFTTLPEVKDRCFATQVYCKWRYHQGRDVDFEATWDTVRSIVLQKFAGPYDKGEYSPSVQKTLYDIQVLTLGQVPEIEDMEISLPNIHYLNIDMSKMGLINKEEVLLPLDNPYGKITGTVKRKLSSRL
modifications: monomethoxy PEG conjugated; Krystexxa Sequence
notes: covalent conjugate of uricase produced by a genetically modified strain of Escherichia coli and monomethoxypoly (ethylene glycol)
[2]
  stability of pegloticase diluted in infusion bags: 4 h
Serum uric acid (sUA); pegloticase 8 mg every 2 weeks, without MTX
  response rate (proportion of responders) during Month 6 in phase 3 studies: 43% and 43.5%
Serum uric acid (sUA); pegloticase alone
  proportion of patients maintaining therapeutic response at 6 months, previously reported: 42%
[3]; 20/21 pegloticase-treated patients with IRs
  patients with IRs in whom loss of response (return to SUA >6 mg/dL) preceded the first IR: 95%
[3]; pegloticase 8 mg every 2 weeks (biweekly dosing)
  incidence of infusion reactions: 26%
[3]; pegloticase 8 mg every-4-week dosing regimen
  incidence of infusion-related reactions: 40%
[3]; pre-marketing controlled clinical trials
  frequency of anaphylaxis: 6.5%

Reference: US20220323445A1, “REDUCING IMMUNOGENICITY TO PEGLOTICASE” (Horizon Therapeutics Ireland DAC, priority 2020, published 2022)
